Series [1] deals with AR+LNCaP androgen-sensitive human prostate cancer cell line. Kind of series: MTT in vitro cytotoxicity assay, 24 h incubation. Type of series: cell-based. The following applies: for IC50: Homo sapiens, MTT; for Selective Index Wi38/Lncap: ratio of IC50 values. How it is done:
(§1) The antitumor properties of pyrazolylmethylene-2-thioxoimidazolidin-4-one derivatives (3a–p) against androgen-sensitive (AR^+LNCaP; ATCC CRL-1740, Accession: CVCL_0395) and androgen-insensitive (AR^-PC-3; ATCC CRL-1435, Accession: CVCL_D5ZS) human prostate cancer cell lines in addition to normal human lung fibroblast cell line (Wi38, Accession: CVCL_2759) were evaluated by MTT assay. AR^+LNCaP, AR^-PC-3, and Wi38 cell lines were purchased frozen in liquid nitrogen from Egyptian Company for Production of Vaccines, Sera and Drugs, Cairo, Egypt (VACSERA). Tumor cell lines were stored as monolayer cultures in DMEM supplemented with 10% FBS and 1% penicillin–streptomycin. MTT assay was carried out as described previously in the literature. In brief, AR^+LNCaP, AR^-PC-3, and Wi38 cells were cultured into 96-well plates containing 100 µL of culture medium per each well. […] A control containing only culture medium was also applied. The assay was performed in triplicate. The cells were incubated overnight to grow at 37 °C in 5% CO2. After removing the growth medium, 100 µL of MTT (0.4 mg/mL of PBS) were added. After 24 h of incubation, the supernatant was removed and 100 µL of DMSO (Sigma Aldrich, Germany) were then added to each sample. Absorbance at 550 nm was measured. The formula (Reading of extract/Reading of negative control) × 100 was applied to calculate the viability percentage. The IC50 value of test compounds (3a–p) was also determined using CPE measurements of normal Wi38 cells (normal human lung fibroblast cells). The MTT assay was repeated with the test compounds (3i, 3k, 3o, 3j, 3p, and 3m) using the three cell types which were stimulated by 1 nM DHT after 48 h of incubation. IC50 values were estimated using Graph Pad Prism computer software (International Scientific Community, San Diego, CA, USA) from linear regression analysis of the concentration–response curves plotted for each tested compound [36].
(§2) In vitro cytotoxicity assay was performed to elucidate the antitumor properties of the synthesized derivatives of pyrazolylmethylene-2-thioxoimidazolidin-4-one. […] The cytotoxicity assay was performed using MTT assay as described in the Materials and Methods Section 2.4.1. The test compounds were dissolved in DMSO as stock solutions (<0.5% (v/v)) and stored in the dark at −20 °C. The human prostate cancer cells and normal human lung fibroblast cells were subjected to variable doses of the compounds for 24 h.

Series [2] has as its system AR-PC-3 androgen-insensitive human prostate cancer cell line. In words: MTT in vitro cytotoxicity assay, 24 h incubation. Type of series: cell-based. Particulars: for IC50: Homo sapiens, MTT; for Selective Index Wi38/PC-3: ratio of IC50 values. How it is done: as §1, §2
The test system of series [3] is Wi38 normal human lung fibroblast cell line. In words: MTT in vitro cytotoxicity assay, 24 h incubation. Type of series: cell-based. The following applies: WI-38. How it is done:
as §1, §2

The test system of series [4] is AR+LNCaP androgen-sensitive human prostate cancer cell line. In words: MTT cytotoxicity assay in presence of 1 nM DHT, 48 h incubation. Type of series: cell-based. Particulars: for IC50: Homo sapiens; for Selectivity AR-/AR+: IC50 PC-3 / IC50 LNCaP. The protocol: as §1
(§3) The assay was performed in the presence of dihydrotestosterone (1 nM DHT) for 48 h of incubation as previously described. DHT is a potent inducer of androgens that enhances prostate cancer disease progression.

For series [5], the system named is AR-PC-3 androgen-insensitive human prostate cancer cell line. The description is as above. Type of series: cell-based. How it is done: as §1, §3
For series [6], the system named is Wi38 normal human lung fibroblast cell line. Described as above. The following applies: WI-38, read-out: IC50 Wi38. Type of series: cell-based. The protocol: as §1, §3
Series [7] concerns active human caspase-3 in AR+LNCaP cells. In words: Detection of active Caspase 3 in AR+LNCaP cell lysates (Invitrogen Elisa kit). Type of series: cell-based. On the set-up: Caspase 3 Conc. (Average): unit not given here. The following applies: for active Caspase 3 fold change compared to untreated cells / induction of active caspase 3 as a percentage of the reference drug Enzalutamide: IC50 concentration; for active Caspase 3 fold change compared to untreated cells: 1 nM DHT, AR+LNCaP lysate; for induction of active caspase 3 as a percentage of the reference drug Enzalutamide: AR+LNCaP; for Caspase 3 fld / Caspase 3: LNCaP, supplement lab report; for Caspase 3 fld: fold of control; for Caspase 3 Conc. (Average): supplement ELISA read-out, average of two wells. How it is done:
Untreated AR^+LNCaP and Enzalutamide-treated AR^+LNCaP were used as negative and positive controls, respectively. AR^+LNCaP cells were cultured in 96-well plates at a cell density of 1 × 10^4 cells/well. Cells were then lysed with 50 µL lysis buffer/well supplemented with the Invitrogen Elisa kit for detection of active human caspase-3 (Invitrogen, Camarillo, CA, USA). Plates were frozen at −80 °C for 30 min and then thawed. The lysate was mixed with 2 Z-DEVD-R110 substrate and incubated at room temperature for 30 min. A fluorescence microplate reader (Tecan, Mainz-Kastel, Germany), was used to measure fluorescence via excitation at 496 nm and emission detection at 520 nm. Values were normalized with total protein content. Active caspase 3 accumulation was determined based on standard dilution series of Human Caspase-3 samples provided with the kit. […]

Series [8] concerns AR+LNCaP cells. In words: DNA content at cell cycle stages (Propidium Iodide flow cytometry). Type of series: cell-based, human. Particulars: IC50 concentration, 1 nM DHT. The protocol:
The amount of DNA contents of AR^+LNCaP cells stimulated with 1 nM DHT and treated with representative test compounds 3i and 3k at the different stages of the cell cycle were quantitatively evaluated as described previously. […] The Ab139418–Propidium Iodide Flow Cytometry Kit for Cell Cycle Analysis (ab139418, Abcam, Cambridge, UK) was employed for this assay following the procedures provided by the supplier.
Firstly, the ab139418-Propidium Iodide Flow Cytometry Kit for Cell Cycle Analysis (Bio vision, Boston, MA, USA) was used to quantify DNA contents at each cell cycle stage as an indicator of the cell cycle growth arrest.

The subject of series [9] is AR+LNCaP cells. In words: Cell apoptosis assay (Annexin V-FITC, flow cytometry). Type of series: cell-based, human. Particulars: IC50 concentration, 1 nM DHT, 24 h. The protocol:
Cell apoptosis assay was performed to ensure the efficacy of compounds 3i and 3k against the progression of AR^+LNCaP tumor cell growth in the presence of 1 nM DHT. Untreated AR^+LNCaP and Enzalutamide-treated AR^+LNCaP were used in this assay as negative and positive controls, respectively. AR^+LNCaP cells were precultured in 25 cm^2 flasks. Briefly, 1 nM DHT was then added to the growing cells. […] AR^+LNCaP cells were harvested and fixed with 70% (v/v) ethanol in FBS (Sigma-Aldrich, Germany), then maintained at 4 °C overnight. The cells were resuspended in FBS containing 0.1% (v/v) Triton X-100, 40 µg/mL […], and 0.1 mg/mL RNase then incubated in a dark chamber at 37 °C for 30 min. A flow-cytometer (Becton Dickinson, San Jose, CA, USA) supplemented with an argon ion laser at a wavelength of 488 nm was used to analyze the AR^+LNCaP cell apoptotic stages. Based on the protocol described by Ozgur et al. (2003), analysis of the data was implemented using Multicycle Software (Phoenix Flow Systems, San Diego, CA, USA; http://www.phoenixflow.com/index.html).
The active compounds 3i and 3k were further analyzed to evaluate their antitumor properties against the growth of the AR^+LNCaP prostate cancer cell line. […] Untreated AR^+LNCaP cells and Enzalutamide reference drug were also used as negative and positive controls in this assay, respectively.

The compound `Cc1ccc(-c2nn(-c3ccc(F)cc3)cc2C=C2NC(=S)NC2=O)cc1` [Compound 3m, 5-((1-(4-Fluorophenyl)-3-(p-tolyl)-1H-pyrazol-4-yl)methylene)-2-thioxoimidazolidin-4-one] showed a melting point of 167 to 169 °C. For the same compound, in [1], the IC50 turned out to be 12.97 ± 0.06 µM and the “Selective Index Wi38/Lncap” value is listed as 2.4. Further, in series [2], the midpoint of inhibition, the IC50, lay at 22.5 ± 0.46 µM and the “Selective Index Wi38/PC-3” value worked out at 1.3. The same compound had an IC50 in series [3] of 30.54 ± 0.08 µM. Moreover, in [4], the IC50 amounted to 10.5 ± 0.11 µM and the “Selectivity AR-/AR+” value was 1.3. Also, in [5], the IC50 is 13.1 ± 0.14 µM. Besides, the CC50 in [6] turned out to be 23.33 ± 0.19 µM. Besides, in series [7], the “active Caspase 3 fold change compared to untreated cells” value (from here on “active Caspase 3 fold change”) is on record as 3.2 fold, the “induction of active caspase 3 as a percentage of the reference drug Enzalutamide” value came out at 48.6%, the “Caspase 3 fld” value is on record as 3.176 and the “Caspase 3” value stood at 244.3 pg/mL. For the same compound, the “Caspase 3 Conc. (Average)” value in series [7] amounted to 244.3.

`O=C1NC(=S)NC1=Cc1cn(-c2ccc(C(F)(F)F)cc2)nc1-c1ccc(F)cc1` [Compound 3o, 5-((3-(4-Fluorophenyl)-1-(4-(trifluoromethyl)phenyl)-1H-pyrazol-4-yl)methylene)-2-thioxoimidazolidin-4-one] returned a melting point of 205 to 207 °C. For the same compound, in series [1], half-maximal inhibition (IC50) required 12.66 ± 0.11 µM and the “Selective Index Wi38/Lncap” value came out at 2.0. In addition, in [2], inhibition was half-maximal at 21.08 ± 0.1 µM (IC50) and the “Selective Index Wi38/PC-3” value turned out to be 1.2. Besides, in series [3], the IC50 was 25.08 ± 0.08 µM. Also, in series [4], the IC50 is 11.75 ± 0.07 µM and the “Selectivity AR-/AR+” value is recorded as 1.4. Moreover, the IC50 in [5] came to 16.4 ± 0.17 µM. In addition, in [6], the CC50 stood at 22.35 ± 0.13 µM. Moreover, in series [7], the “active Caspase 3 fold change” value is given as 3.5 fold, the “induction of active caspase 3 as a percentage of the reference drug Enzalutamide” value was determined as 53.4%, the “Caspase 3 fld” value was determined as 3.490 and the “Caspase 3” value was determined as 268.4 pg/mL. Further, in series [7], the “Caspase 3 Conc. (Average)” value was determined as 268.4.

Take `CNC(=O)c1ccc(N2C(=S)N(c3ccc(C#N)c(C(F)(F)F)c3)C(=O)C2(C)C)cc1F` [Enzalutamide, reference compound]: in [7], the “Caspase 3 fld” value was 6.923, the “Caspase 3” value stood at 532.4 pg/mL and the “Caspase 3 Conc. (Average)” value is on record as 532.4. Also, in the series on AR+LNCaP cells [8], the “DNA Content (%) G0–G1” value worked out at 61.02% and the “DNA Content (%) G2/M” value is given as 25.37%. Moreover, in the series on AR+LNCaP cells [9], the “Early Apoptosis (%)” value came out at 9.46%, the “Late Apoptosis (%)” value was determined as 21.27%, the “Necrotic Cells (%)” value came to 3.13% and the “Total Apoptosis (%)” value was found to be 33.86%.

`O=C1NC(=S)NC1=Cc1cn(-c2ccc(F)cc2)nc1-c1ccc(Br)cc1` [Compound 3j, 5-((3-(4-Bromophenyl)-1-(4-fluorophenyl)-1H-pyrazol-4-yl)methylene)-2-thioxoimidazolidin-4-one] registered a melting point of 199 to 201 °C. In series [1], the IC50 amounted to 13.9 ± 0.14 µM and the “Selective Index Wi38/Lncap” value came out at 2.2. In addition, in series [2], half-maximal inhibition (IC50) was put at 24.44 ± 0.12 µM and the “Selective Index Wi38/PC-3” value turned out to be 1.5. The compound further came in with an IC50 in series [3] of 31.18 ± 0.16 µM. In series [4], the IC50 came out at 7.72 ± 0.15 µM and the “Selectivity AR-/AR+” value is recorded as 1.8. The IC50 in series [5] was 14.2 ± 0.15 µM. In addition, the CC50 in series [6] amounted to 21.08 ± 0.06 µM. Further, in series [7], the “active Caspase 3 fold change” value amounted to 4.2 fold, the “induction of active caspase 3 as a percentage of the reference drug Enzalutamide” value turned out to be 63.0%, the “Caspase 3 fld” value turned out to be 4.115 and the “Caspase 3” value came to 316.5 pg/mL. In addition, the “Caspase 3 Conc. (Average)” value in [7] is 316.5.

As to `O=C1NC(=S)NC1=Cc1cn(-c2ccccc2)nc1-c1ccc(Cl)cc1` [Compound 3b, 5-((3-(4-Chlorophenyl)-1-phenyl-1H-pyrazol-4-yl)methylene)-2-thioxoimidazolidin-4-one], the melting point was 183 to 184 °C. In series [1], the IC50 was found to be 20.79 ± 0.06 µM and the “Selective Index Wi38/Lncap” value came to 1.0. Besides, in series [2], the IC50 was 21.92 ± 0.12 µM and the “Selective Index Wi38/PC-3” value is on record as 0.9. The compound also gave an IC50 in series [3] of 24.26 ± 0.06 µM.

`COc1ccc(-c2nn(-c3ccc(F)cc3)cc2C=C2NC(=S)NC2=O)cc1` [Compound 3n, 5-((1-(4-Fluorophenyl)-3-(4-methoxyphenyl)-1H-pyrazol-4-yl)methylene)-2-thioxoimidazolidin-4-one] returned a melting point of 179 to 181 °C. Moreover, in series [1], half-maximal inhibition (IC50) required 15.02 ± 0.15 µM and the “Selective Index Wi38/Lncap” value is reported as 1.8. In addition, in [2], the IC50 stood at 23.25 ± 0.08 µM and the “Selective Index Wi38/PC-3” value is given as 1.2. In series [3], this compound returned an IC50 of 26.93 ± 0.09 µM.

With `Nc1ccc(-c2nn(-c3ccccc3)cc2C=C2NC(=S)NC2=O)cc1` [Compound 3g, 5-((3-(4-Aminophenyl)-1-phenyl-1H-pyrazol-4-yl)methylene)-2-thioxoimidazolidin-4-one], the melting point is 195 to 197 °C. In [1], inhibition was half-maximal at 47.31 ± 0.18 µM (IC50) and the “Selective Index Wi38/Lncap” value amounted to 1.2. For the same compound, in series [2], the IC50 worked out at 26.8 ± 0.39 µM and the “Selective Index Wi38/PC-3” value turned out to be 2.1. Also, in series [3], 56.62 ± 0.16 µM corresponded to half-maximal inhibition (IC50).

These data come from publication PMC11274643, “Design, Synthesis, Characterization, and Cytotoxicity of New Pyrazolylmethylene-2-thioxoimidazolidin-4-one Derivatives towards Androgen-Sensitive LNCaP Prostate Cancer Cells” (Biomolecules, 2024).
